# Test results published in paper PMC11123841, “Discovery and Synthesis of Hydroxy-L-Proline Blockers of the Neutral Amino Acid Transporters SLC1A4 (ASCT1) and SLC1A5 (ASCT2)” (Molecules, 2024).
# “And” between values parts separate entries of the source, which are not always exact repeats. Equal values may be shown once.
# Columns and labels:
# Format in all cases: cell-based
# mSLC1A5 = target: T1, mSLC1A5 (Mus musculus, UniProt P51912); test: TEVC block of anion leak conductance in oocytes; details: SLC1A5; compared with ligands of refs 43, 65
# T1 construct: expressed in transfected cells; host or cells: Xenopus laevis oocytes (cRNA injection)
# T1 sequence (P51912 1-553): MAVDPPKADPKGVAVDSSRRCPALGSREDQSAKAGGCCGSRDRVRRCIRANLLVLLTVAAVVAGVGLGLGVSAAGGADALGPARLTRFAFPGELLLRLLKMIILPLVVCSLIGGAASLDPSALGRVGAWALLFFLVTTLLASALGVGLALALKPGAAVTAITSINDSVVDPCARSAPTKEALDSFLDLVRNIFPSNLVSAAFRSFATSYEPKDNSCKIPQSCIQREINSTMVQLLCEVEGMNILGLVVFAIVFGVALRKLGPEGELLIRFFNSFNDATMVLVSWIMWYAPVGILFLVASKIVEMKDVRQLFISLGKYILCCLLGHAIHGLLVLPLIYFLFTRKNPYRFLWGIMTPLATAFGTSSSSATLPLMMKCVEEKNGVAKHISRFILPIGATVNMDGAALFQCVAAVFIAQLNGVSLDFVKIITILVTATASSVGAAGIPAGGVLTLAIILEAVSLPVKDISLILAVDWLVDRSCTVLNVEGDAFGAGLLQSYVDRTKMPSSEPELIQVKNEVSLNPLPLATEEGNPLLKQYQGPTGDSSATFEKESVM
# Source text: The currents induced by substrates and blocked by hydroxyproline analogs shared a reversal potential shown in the current/voltage relationship consistent with the conductance originating from the same ion pore (Figure 3, inset). […] The observed dose–response relationships are independent of competing substrates, and thus provide a direct measure of the equilibrium inhibition constant (Ki). Each synthetic hydroxyproline analog was functionally assessed for its capacity to inhibit SLC1A4 and SLC1A5 leak currents with affinities reported in Table 1 as determined or approximated Ki.
# (§1) Two-electrode voltage clamp (TEVC) transporter currents were recorded with a GeneClamp 500 amplifier and Digidata 1320A analog–digital interface (Molecular Devices, San Jose, CA, USA). Electrodes (0.2–1.0 MΩ) were filled with 3M KCl and the recording chamber was grounded with an agar bridge. Data were acquired with Axograph (v1.7.6) and LabChart (v7) and analyzed with Kaleidagraph software (v4.1) (Synergy, Reading, PA, USA). Uncoupled anion currents associated with the transport of substrate and block of SLC1A4 or SLC1A5 mediated leak conductance were recorded in the presence of Ringer with 50% substitution of NaCl by NaSCN to amplify the non-transported anion conductance.
# Figure 3 AHPCs block a leak current in SLC1A4 and SLC1A5. […] Inset (A): The current and voltage relationship for SLC1A4 currents activated by Ala or blocked by 14b are determined by subtracting voltage jumps in buffer.
# SLC1A3 (EAAT1) = target: T2, SLC1A3 (EAAT1) (Homo sapiens, UniProt P43003); test: TEVC in oocytes expressing glutamate transporter; details: EAAT1 (SLC1A3); 10 µM L-glu current, TEVC; read-out: IC50, block of glutamate current
# T2 construct: expressed in transfected cells; host or cells: Xenopus laevis oocytes (cRNA injection)
# Method: (§2) Additionally, 4-HP applied at 1 mM was used to assess activity at the glutamate transporters SLC1A3 or SLC1A1.
# (§3) BPOHP activity was evaluated against the glutamate transporters paralogs within the SLC1A gene family (SLC1A 1–3) as well as at neutral amino acid transporters that share common ligand substrates with the SLC1 family including SLC38A1,2, and 4 (ATA1, ATA2, ATA3) and heteromeric transporters SLC7A10+SLC3A2 (asc-1/4f2).
# (§4) Uptake was halted by washing 3 times with 4 °C ND96 buffer. Oocytes were then lysed in 0.1% Triton X-100, and radioactivity was counted via liquid scintillation. Dose response curves were generated by fitting fractional inhibition (I) to the expression I = Imax × [inhibitor]/([inhibitor] + IC50).
# as §1
# (§5) Figure SM-2 TEVC from oocytes expressing SLC1A1-3 transporters.
# (§6) (1 picture or pasted object on this page, not shown here)
# SLC1A1 (EAAT3) = target: T3, SLC1A1 (EAAT3) (Homo sapiens, UniProt P43005); test: TEVC in oocytes expressing glutamate transporter; details: EAAT3 (SLC1A1); 10 µM L-glu current, TEVC; read-out: IC50, block of glutamate current
# T3 construct: expressed in transfected cells; host or cells: Xenopus laevis oocytes (cRNA injection)
# T3 sequence (P43005 1-524): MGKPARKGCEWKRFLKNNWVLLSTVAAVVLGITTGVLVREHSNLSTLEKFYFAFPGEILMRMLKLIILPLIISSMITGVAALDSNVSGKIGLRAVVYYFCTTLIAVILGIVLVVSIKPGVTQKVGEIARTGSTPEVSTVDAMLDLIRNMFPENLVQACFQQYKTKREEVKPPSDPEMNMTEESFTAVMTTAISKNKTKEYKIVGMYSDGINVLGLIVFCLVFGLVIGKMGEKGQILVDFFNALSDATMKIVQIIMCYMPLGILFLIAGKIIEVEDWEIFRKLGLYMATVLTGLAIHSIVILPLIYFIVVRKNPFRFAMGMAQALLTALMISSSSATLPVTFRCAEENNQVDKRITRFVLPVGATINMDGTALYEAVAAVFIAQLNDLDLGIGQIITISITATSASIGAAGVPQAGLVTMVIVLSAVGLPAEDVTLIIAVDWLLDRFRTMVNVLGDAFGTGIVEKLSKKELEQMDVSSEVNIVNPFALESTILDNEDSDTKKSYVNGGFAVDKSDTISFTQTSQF
# Method: as §2, §3, §4, §1, §5, §6
# SLC1A2 (EAAT2) = target: T4, SLC1A2 (EAAT2) (Homo sapiens, UniProt P43004); test: TEVC in oocytes expressing glutamate transporter; details: 10 µM L-glu current, read-out: IC50, block of glutamate current
# T4 construct: expressed in transfected cells; host or cells: Xenopus laevis oocytes (cRNA injection)
# Method: as §3, with “(asc-1/4f2). […] Finally, radiolabeled [^3H]D-serine uptake was used to assess the electroneutral SLC7A10+SLC3A2 transporter, in which 10 µM BPOHP had no effect (Figure S3).” for “(asc-1/4f2).”
# as §4
# as §1, with “Electrodes (0.2–1.0 MΩ) were filled with 3M KCl and the recording chamber was grounded with an agar bridge.” left out, “conductance. […]” for “conductance.”
# T2 sequence (P43003 whole entry): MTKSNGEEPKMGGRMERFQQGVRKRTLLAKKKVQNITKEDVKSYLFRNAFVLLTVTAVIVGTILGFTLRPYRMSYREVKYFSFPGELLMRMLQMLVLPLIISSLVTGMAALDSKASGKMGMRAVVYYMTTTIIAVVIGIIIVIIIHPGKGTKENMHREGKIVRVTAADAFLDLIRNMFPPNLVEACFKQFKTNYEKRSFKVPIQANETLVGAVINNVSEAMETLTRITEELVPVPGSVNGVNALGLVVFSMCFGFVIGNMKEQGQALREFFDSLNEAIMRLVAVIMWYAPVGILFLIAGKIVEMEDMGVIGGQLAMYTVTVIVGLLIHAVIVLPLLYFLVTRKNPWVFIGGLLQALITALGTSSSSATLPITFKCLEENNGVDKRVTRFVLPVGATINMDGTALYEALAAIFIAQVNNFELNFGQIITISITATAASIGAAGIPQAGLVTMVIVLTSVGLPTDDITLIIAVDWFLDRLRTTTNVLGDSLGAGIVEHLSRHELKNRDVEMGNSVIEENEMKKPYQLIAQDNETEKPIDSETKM
# T4 sequence (P43004 whole entry): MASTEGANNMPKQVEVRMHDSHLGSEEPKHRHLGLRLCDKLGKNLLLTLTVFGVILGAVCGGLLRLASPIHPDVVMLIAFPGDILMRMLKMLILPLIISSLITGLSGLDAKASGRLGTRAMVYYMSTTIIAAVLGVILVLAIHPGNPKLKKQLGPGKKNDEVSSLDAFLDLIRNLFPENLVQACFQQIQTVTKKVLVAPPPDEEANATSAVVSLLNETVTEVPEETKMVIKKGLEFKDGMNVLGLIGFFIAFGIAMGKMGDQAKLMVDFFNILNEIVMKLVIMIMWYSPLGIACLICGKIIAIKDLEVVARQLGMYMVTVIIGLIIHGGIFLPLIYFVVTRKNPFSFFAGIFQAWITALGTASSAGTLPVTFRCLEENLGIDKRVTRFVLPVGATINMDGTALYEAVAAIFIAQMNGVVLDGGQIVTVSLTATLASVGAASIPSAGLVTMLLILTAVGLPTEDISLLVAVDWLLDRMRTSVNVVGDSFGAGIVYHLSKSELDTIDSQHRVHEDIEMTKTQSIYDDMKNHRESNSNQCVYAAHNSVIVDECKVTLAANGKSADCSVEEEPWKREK
smiles,measurement,setting,value
O=C(O)[C@H]1NC[C@@H](OCc2ccc(-c3ccccc3)cc2)[C@@H]1O [14e],fold improvement in affinity over ligands previously reported,mSLC1A5,7–25 fold
same,IC50,SLC1A3 (EAAT1),1750 nM and 2450 nM
same,IC50,SLC1A1 (EAAT3),19500 nM and 25300 nM
same,IC50,SLC1A2 (EAAT2),1200 nM
